These results are taken from PMC7929976, “Eriodictyol as a Potential Candidate Inhibitor of Sortase A Protects Mice From Methicillin-Resistant Staphylococcus aureus-Induced Pneumonia” (Frontiers in Microbiology, 2021).

In general, pIC50 refers to −log10 of the IC50, conventionally taken in molar units.

pIC50: −log10 of the molar value.

In the assay the target is T1, Sortase A (SrtA) (Staphylococcus aureus, UniProt Q2FV99).
T1 construct: pET28a-SrtA, recombinant, nickel-purified
The assay is described as follows: FRET cleavage assay with purified recombinant SrtA; reversible by dilution; binding supported by fluorescence quenching (KA […] L/mol). The format is biochemical.

T1 sequence (Q2FV99 whole entry): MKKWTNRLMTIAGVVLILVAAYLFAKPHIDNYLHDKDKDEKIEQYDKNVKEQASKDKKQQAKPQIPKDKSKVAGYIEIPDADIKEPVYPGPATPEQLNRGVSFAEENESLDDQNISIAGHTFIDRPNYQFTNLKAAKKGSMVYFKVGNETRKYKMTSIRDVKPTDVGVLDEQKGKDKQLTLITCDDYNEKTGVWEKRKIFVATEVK

In the case of `O=C1C[C@@H](c2ccc(O)c(O)c2)Oc2cc(O)cc(O)c21` [eriodictyol], the pIC50 is 5.11.
